From US20240261443A1, “COMPOUNDS AND COMPOSITIONS USEFUL AS RADIOTRACERS FOR IMAGING OF REACTIVE OXIDATIVE SPECIES” (Wake Forest University Health Sciences, priority 2019, published 2024) come the findings set out here.

A word on the IC50: it is the concentration needed to halve the response being measured. Read a low IC50 as higher potency.

One data set concerns SCC-61 tumors. In words: Post-PET biodistribution, SCC-61 tumor-bearing mice. In kind it is in vivo. As for the experimental part: (§1) Subsequently, post-PET biodistribution was performed in the same SCC-61 or rSCC-61 tumor-bearing mice injected with [^18F]KS1 (FIG. 16). […] High kidney and liver uptake were common with [^18F]radiotracer's distribution at 30 min post-injection.

For another data set, the system named is PC3 cells. In words: [18F]KS1 in vitro cell uptake in PC3 cells, normoxic and hypoxic. Type of data set: cell-based, human. Here is the method:
ROS efficacy was evaluated in two tumor cell lines: (1)SCC-61 and rSCC-61 cells (HNSCC) (FIG. 5), and (2) PC3 (PCa) cell lines under normoxic and hypoxic conditions (FIG. 6) following previously published protocols by our group (Sai et al., Peptide-based PET imaging of the tumor restricted IL13RA2 biomarker. Oncotarget 2017, 5; Yamamoto et al., Correlation of 18F-FLT and 18F-FDG uptake on PET with Ki-67 immunohistochemistry in non-small cell lung cancer. European Journal of Nuclear Medicine and Molecular Imaging 2007, 34 (10), 1610-1616; Solingapuram Sai et al., Radiolabeling and initial biological evaluation of [18F]KBM-1 for imaging RAR-α receptors in neuroblastoma. Bioorganic & Medicinal Chemistry Letters 2017, 27 (6), 1425-1427). Several ROS blockers including fresh solution of non-radioactive compounds KS1, KS2, SOD (10 μM) in the cell media were added to the seeded tumor cells 1.0 h prior to radiotracer addition (n=6 per blocker). All the cells were then treated with [^18F]KS1 (2.0 μCi/well, UV mass=0.4 μg/mL and S.A=3100 mCi/μmol) and incubated for 60 min (n=6) at 37° C. All the cells (both with and without blockers) were washed and lysed with lysate buffer solution. Lysate samples from each well were collected for gamma counting.
Similarly, in another experiment, human PCa-PC3 cells were cultured under normoxic (˜21% O2) or hypoxic (1% O2) conditions for 48 h. Thereafter, similar to HNSCC cells (detailed above) all assay steps including blocker treatment, radiotracer addition, incubations, washings and lysis were carried out under normoxic or hypoxic conditions. All hypoxia experiments were performed in a hypoxia chamber (Biospherix X3 Xvivo system). Plates without radioactivity were used as controls. […] The counts per minute values of each well were normalized to the amount of radioactivity added to each well and was expressed as percent uptake relative to the control condition. The data were expressed as % ID/mg of protein present in each well.
To further test the specificity of [^18F]KS1 for ROS, radioactive uptake in PCa cells was tested under hypoxic conditions, as several studies have shown that hypoxic conditions promote ROS generation and oxidative stress (Kumar et al., Oxidative Stress Is Inherent in Prostate Cancer Cells and Is Required for Aggressive Phenotype. Cancer Research. 2008; 68:1777-85; Pinthus et al., Androgen Induces Adaptation to Oxidative Stress in Prostate Cancer: Implications for Treatment with Radiation Therapy. Neoplasia (New York, NY). 2007; 9:68-80; Cervellati et al., Hypoxia induces cell damage via oxidative stress in retinal epithelial cells. […] A reported hypoxia model of PCa cells was tested in which the uptake of [^18F]KS1 was evaluated in PC3 cells cultured under hypoxic conditions versus normoxic conditions.

In a further data set the test system is rSCC-61 tumors. In words: Post-PET biodistribution, rSCC-61 tumor-bearing mice. Type of data set: in vivo. Here is the method: as §1
The next data set deals with SCC-61 cell line (HNSCC). In words: MTT cytotoxicity IC50 assay, SCC-61. In kind it is cell-based, human. The settings on record: Homo sapiens, SCC-61, MTT. As for the experimental part:
(§2) The cells were seeded at density 5×10^3 cells/well. After 24 h pre-incubation period, cells were treated with 0.01 mM to 2.0 mM of freshly prepared KS1 and KS2 along with ascorbate (n=3) for 48 h. 0.2% of DMSO served as vehicle control. After 48 h, the solutions were removed from all plates and MTT assays performed following the published protocols. IC50 values are presented as mean±SD from at least three independent experiments.
There is growing evidence for a therapeutic role of ascorbate against several cancers (Creagan et al., Failure of High-Dose Vitamin C (Ascorbic Acid) Therapy to Benefit Patients with Advanced Cancer. New England Journal of Medicine 1979, 301 (13), 687-690; Chen et al., Pharmacologic ascorbic acid concentrations selectively kill cancer cells: action as a pro-drug to deliver hydrogen peroxide to tissues. Proceedings of the National Academy of Sciences of the United States of America 2005, 102 (38), 13604-13609; Prasad et al., High Doses of Multiple Antioxidant Vitamins: Essential Ingredients in Improving the Efficacy of Standard Cancer Therapy. Journal of the American College of Nutrition 1999, 18 (1), 13-25). Pharmacologic doses of ascorbate (oral and/or intravenous) could increase the effectiveness of cancer chemotherapy in many solid cancer therapies (López-Lizaro, Dual role of hydrogen peroxide in cancer: Possible relevance to cancer chemoprevention and therapy. Cancer Letters 2007, 252 (1), 1-8; Li et al., New Developments and Novel Therapeutic Perspectives for Vitamin C. The Journal of Nutrition 2007, 137 (10), 2171-2184; Klimant et al., Intravenous vitamin C in the supportive care of cancer patients: a review and rational approach. Current Oncology 2018, 25 (2), 139-148. The primary objective of this experiment was to determine the cytotoxic effects of KS1 at pharmacological concentrations. Cancer cell lines were selected based on their high ROS implications. […] These cell lines have been studied extensively with ascorbic acid treatments (Schoenfeld et al., O(2)(·−) and H(2)O(2)-Mediated Disruption of Fe Metabolism Causes the Differential Susceptibility of NSCLC and GBM Cancer Cells to Pharmacological Ascorbate. Cancer Cell 2017, 31 (4), 487-500.e8; Chen et al., Modulators of Redox Metabolism in Head and Neck Cancer. Antioxidants & Redox Signaling 2017, 29 (16), 1660-1690; Khandrika et al., Oxidative stress in prostate cancer. Cancer Lett 2009, 282 (2), 125-136.

The subject of data set [1] is SCC-61, G48, MD3-MB-231 and PC3 cancer cell lines. Description: MTT assay, potency versus ascorbate across patient-derived cancer cell lines. Type of data set: cell-based, human. The settings on record: Example 13; SCC-61, PC3, and MD3-MB-231 cells. Here is the method:
as §2
There is growing evidence for a therapeutic role of ascorbate against several cancers (Creagan et al., Failure of High-Dose Vitamin C (Ascorbic Acid) Therapy to Benefit Patients with Advanced Cancer. New England Journal of Medicine 1979, 301 (13), 687-690; Chen et al., Pharmacologic ascorbic acid concentrations selectively kill cancer cells: action as a pro-drug to deliver hydrogen peroxide to tissues. Proceedings of the National Academy of Sciences of the United States of America 2005, 102 (38), 13604-13609; Prasad et al., High Doses of Multiple Antioxidant Vitamins: Essential Ingredients in Improving the Efficacy of Standard Cancer Therapy. Journal of the American College of Nutrition 1999, 18 (1), 13-25). […]

For the molecule `O=C1O/C(=C/CCl)C(O)=C1OCc1ccc(OCC[18F])cc1` [[^18F]KS1], the “target (tumor) to non-target (muscle) ratio” value with SCC-61 tumors (SCC-61 tumors, post-PET) turned out to be 10.93. Moreover, the “enrichment in SCC-61 tumors over rSCC-61 tumors” value in the data set on SCC-61 tumors (tumor: muscle ratio) is about 2.5 fold. Also, in the data set on PC3 cells (PC3 cells), the “uptake blocked by SOD” value is on record as about 48%, the “uptake blocked by nonradioactive KS1” value is given as about 61% and the “uptake increase with doxorubicin” value is on record as about 15%. Besides, the “radioactive uptake in PC3 under hypoxic conditions versus normoxic conditions” value in the data set with PC3 cells (hypoxic 1% O2 vs normoxic ~21% O2, 60 min) was about 2 fold. Moreover, the “target (tumor) to non-target (muscle) ratio” value in the data set on rSCC-61 tumors is listed as 4.11.

Regarding `O=C1O/C(=C/CCl)C(O)=C1OCc1ccc(OCCF)cc1` [KS1, (E)-5-(2-chloroethylidene)-3-(4-(2-fluoroethoxy)benzyloxy)-4-hydroxyfuran-2(5H)-one], the IC50 in the data set with SCC-61 cell line (HNSCC) (Example 7, 48 h) was found to be 288 µM; in the data set on SCC-61 cell line (HNSCC) (Example 13) it was 718 µM. Moreover, the “selectivity (potency) versus ascorbate” value in data set [1] was in the range of 1.6 to 2.5 fold.
